Results: the NIST ThermoML archive (doi:10.1016/j.fluid.2010.03.010)
Numbers after ± are expanded uncertainties.

Conditions: for surface tension liquid-gas: Wilhelmg Plate Tensimeter; for mass density: Liquid, Vibrating tube method

CCOS(=O)(=O)[O-].CCn1cc[n+](C)c1 [1-ethyl-3-methylimidazolium ethyl sulfate]
surface tension liquid-gas (292.91 K): 47.16 ± 1.7 mN/m | mass density (293.15 K, 100 kPa): 1241.3 ± 9.9 kg/m3 | mass density (293.15 K, 101.33 kPa): 1241.37 ± 9.9 kg/m3 | mass density (293.15 K, 250 kPa): 1241.4 ± 9.9 kg/m3 | mass density (293.15 K, 500 kPa): 1241.4 ± 9.9 kg/m3 | mass density (293.15 K, 1000 kPa): 1241.7 ± 9.9 kg/m3 | mass density (293.15 K, 1990 kPa): 1242.1 ± 9.9 kg/m3 | mass density (293.15 K, 4990 kPa): 1243.3 ± 10 kg/m3 | mass density (293.15 K, 10010 kPa): 1245.3 ± 10 kg/m3 | mass density (293.15 K, 14990 kPa): 1247.2 ± 10 kg/m3 | mass density (293.15 K, 20000 kPa): 1249.2 ± 10 kg/m3 | mass density (293.15 K, 24990 kPa): 1251.1 ± 10 kg/m3 | mass density (293.15 K, 30010 kPa): 1253 ± 10 kg/m3 | mass density (293.15 K, 35000 kPa): 1254.8 ± 10 kg/m3 | mass density (293.15 K, 40000 kPa): 1256.6 ± 10 kg/m3 | mass density (293.15 K, 45000 kPa): 1258.4 ± 10 kg/m3 | mass density (293.15 K, 50000 kPa): 1260.2 ± 10 kg/m3 | mass density (293.15 K, 55000 kPa): 1262 ± 10 kg/m3 | mass density (293.15 K, 60000 kPa): 1263.7 ± 10 kg/m3 | mass density (294.15 K, 101.33 kPa): 1240.67 ± 9.9 kg/m3 | mass density (295.15 K, 101.33 kPa): 1239.97 ± 9.9 kg/m3 | mass density (296.15 K, 101.33 kPa): 1239.28 ± 9.9 kg/m3 | mass density (297.15 K, 101.33 kPa): 1238.58 ± 9.9 kg/m3 | mass density (298.15 K, 101.33 kPa): 1237.88 ± 9.9 kg/m3 | surface tension liquid-gas (298.26 K): 46.9 ± 1.7 mN/m | mass density (299.15 K, 101.33 kPa): 1237.19 ± 9.9 kg/m3 | mass density (300.15 K, 101.33 kPa): 1236.5 ± 9.9 kg/m3 | mass density (301.15 K, 101.33 kPa): 1235.81 ± 9.9 kg/m3 | mass density (302.15 K, 101.33 kPa): 1235.12 ± 9.9 kg/m3 | surface tension liquid-gas (303 K): 46.59 ± 1.7 mN/m | mass density (303.15 K, 100 kPa): 1234.3 ± 9.9 kg/m3 | mass density (303.15 K, 101.33 kPa): 1234.43 ± 9.9 kg/m3 | mass density (303.15 K, 250 kPa): 1234.4 ± 9.9 kg/m3 | mass density (303.15 K, 500 kPa): 1234.5 ± 9.9 kg/m3 | mass density (303.15 K, 1000 kPa): 1234.7 ± 9.9 kg/m3 | mass density (303.15 K, 2010 kPa): 1235.1 ± 9.9 kg/m3 | mass density (303.15 K, 4990 kPa): 1236.3 ± 9.9 kg/m3 | mass density (303.15 K, 10010 kPa): 1238.4 ± 9.9 kg/m3 | mass density (303.15 K, 14990 kPa): 1240.4 ± 9.9 kg/m3 | mass density (303.15 K, 20000 kPa): 1242.4 ± 10 kg/m3 | mass density (303.15 K, 24990 kPa): 1244.3 ± 10 kg/m3 | mass density (303.15 K, 30010 kPa): 1246.3 ± 10 kg/m3 | mass density (303.15 K, 35010 kPa): 1248.1 ± 10 kg/m3 | mass density (303.15 K, 40000 kPa): 1250 ± 10 kg/m3 | mass density (303.15 K, 45000 kPa): 1251.8 ± 10 kg/m3 | mass density (303.15 K, 50000 kPa): 1253.6 ± 10 kg/m3 | mass density (303.15 K, 55000 kPa): 1255.4 ± 10 kg/m3 | mass density (303.15 K, 60000 kPa): 1257.1 ± 10 kg/m3 | mass density (304.15 K, 101.33 kPa): 1233.74 ± 9.9 kg/m3 | mass density (305.15 K, 101.33 kPa): 1233.05 ± 9.9 kg/m3 | mass density (306.15 K, 101.33 kPa): 1232.37 ± 9.9 kg/m3 | mass density (307.15 K, 101.33 kPa): 1231.69 ± 9.9 kg/m3 | mass density (308.15 K, 101.33 kPa): 1231 ± 9.9 kg/m3 | surface tension liquid-gas (308.61 K): 46.35 ± 1.7 mN/m | mass density (309.15 K, 101.33 kPa): 1230.32 ± 9.8 kg/m3 | mass density (310.15 K, 101.33 kPa): 1229.64 ± 9.8 kg/m3 | mass density (311.15 K, 101.33 kPa): 1228.96 ± 9.8 kg/m3 | mass density (312.15 K, 101.33 kPa): 1228.28 ± 9.8 kg/m3 | mass density (313.15 K, 100 kPa): 1227.5 ± 9.8 kg/m3 | mass density (313.15 K, 101.33 kPa): 1227.61 ± 9.8 kg/m3 | mass density (313.15 K, 250 kPa): 1227.5 ± 9.8 kg/m3 | mass density (313.15 K, 500 kPa): 1227.6 ± 9.8 kg/m3 | mass density (313.15 K, 2000 kPa): 1228.3 ± 9.8 kg/m3 | mass density (313.15 K, 4990 kPa): 1229.5 ± 9.8 kg/m3 | mass density (313.15 K, 10010 kPa): 1231.7 ± 9.9 kg/m3 | mass density (313.15 K, 14990 kPa): 1233.7 ± 9.9 kg/m3 | mass density (313.15 K, 20000 kPa): 1235.7 ± 9.9 kg/m3 | mass density (313.15 K, 25000 kPa): 1237.6 ± 9.9 kg/m3 | mass density (313.15 K, 30010 kPa): 1239.6 ± 9.9 kg/m3 | mass density (313.15 K, 35000 kPa): 1241.5 ± 10 kg/m3 | mass density (313.15 K, 40000 kPa): 1243.4 ± 10 kg/m3 | mass density (313.15 K, 44990 kPa): 1245.3 ± 10 kg/m3 | mass density (313.15 K, 50000 kPa): 1247.1 ± 10 kg/m3 | mass density (313.15 K, 54990 kPa): 1248.9 ± 10 kg/m3 | mass density (313.15 K, 60000 kPa): 1250.7 ± 10 kg/m3 | surface tension liquid-gas (313.41 K): 46.12 ± 1.7 mN/m | mass density (314.15 K, 101.33 kPa): 1226.93 ± 9.8 kg/m3 | mass density (315.15 K, 101.33 kPa): 1226.25 ± 9.8 kg/m3 | mass density (316.15 K, 101.33 kPa): 1225.58 ± 9.8 kg/m3 | mass density (317.15 K, 101.33 kPa): 1224.9 ± 9.8 kg/m3 | mass density (318.15 K, 101.33 kPa): 1224.23 ± 9.8 kg/m3 | mass density (319.15 K, 101.33 kPa): 1223.56 ± 9.8 kg/m3 | mass density (320.15 K, 101.33 kPa): 1222.89 ± 9.8 kg/m3 | mass density (321.15 K, 101.33 kPa): 1222.21 ± 9.8 kg/m3 | mass density (322.15 K, 101.33 kPa): 1221.54 ± 9.8 kg/m3 | surface tension liquid-gas (322.71 K): 45.5 ± 1.7 mN/m | mass density (323.15 K, 100 kPa): 1220.7 ± 9.8 kg/m3 | mass density (323.15 K, 101.33 kPa): 1220.88 ± 9.8 kg/m3 | mass density (323.15 K, 250 kPa): 1220.8 ± 9.8 kg/m3 | mass density (323.15 K, 500 kPa): 1220.9 ± 9.8 kg/m3 | mass density (323.15 K, 1010 kPa): 1221.1 ± 9.8 kg/m3 | mass density (323.15 K, 2010 kPa): 1221.6 ± 9.8 kg/m3 | mass density (323.15 K, 4990 kPa): 1222.9 ± 9.8 kg/m3 | mass density (323.15 K, 10010 kPa): 1225 ± 9.8 kg/m3 | mass density (323.15 K, 14990 kPa): 1227.1 ± 9.8 kg/m3 | mass density (323.15 K, 20010 kPa): 1229.1 ± 9.8 kg/m3 | mass density (323.15 K, 25000 kPa): 1231.1 ± 9.9 kg/m3 | mass density (323.15 K, 30010 kPa): 1233.1 ± 9.9 kg/m3 | mass density (323.15 K, 35000 kPa): 1235.1 ± 9.9 kg/m3 | mass density (323.15 K, 40000 kPa): 1237 ± 9.9 kg/m3 | mass density (323.15 K, 45000 kPa): 1238.9 ± 9.9 kg/m3 | mass density (323.15 K, 50000 kPa): 1240.8 ± 10 kg/m3 | mass density (323.15 K, 55000 kPa): 1242.6 ± 10 kg/m3 | mass density (323.15 K, 60000 kPa): 1244.5 ± 10 kg/m3 | mass density (324.15 K, 101.33 kPa): 1220.21 ± 9.8 kg/m3 | mass density (325.15 K, 101.33 kPa): 1219.54 ± 9.8 kg/m3 | mass density (326.15 K, 101.33 kPa): 1218.87 ± 9.8 kg/m3 | mass density (327.15 K, 101.33 kPa): 1218.21 ± 9.8 kg/m3 | mass density (328.15 K, 101.33 kPa): 1217.54 ± 9.8 kg/m3 | mass density (329.15 K, 101.33 kPa): 1216.88 ± 9.7 kg/m3 | mass density (330.15 K, 101.33 kPa): 1216.21 ± 9.7 kg/m3 | mass density (331.15 K, 101.33 kPa): 1215.55 ± 9.7 kg/m3 | surface tension liquid-gas (332.09 K): 45.08 ± 1.6 mN/m | mass density (332.15 K, 101.33 kPa): 1214.89 ± 9.7 kg/m3 | mass density (333.15 K, 100 kPa): 1214.1 ± 9.7 kg/m3 | mass density (333.15 K, 101.33 kPa): 1214.23 ± 9.7 kg/m3 | mass density (333.15 K, 250 kPa): 1214.1 ± 9.7 kg/m3 | mass density (333.15 K, 500 kPa): 1214.2 ± 9.7 kg/m3 | mass density (333.15 K, 1000 kPa): 1214.4 ± 9.7 kg/m3 | mass density (333.15 K, 2010 kPa): 1214.9 ± 9.7 kg/m3 | mass density (333.15 K, 5000 kPa): 1216.2 ± 9.7 kg/m3 | mass density (333.15 K, 10010 kPa): 1218.4 ± 9.8 kg/m3 | mass density (333.15 K, 14990 kPa): 1220.5 ± 9.8 kg/m3 | mass density (333.15 K, 20000 kPa): 1222.7 ± 9.8 kg/m3 | mass density (333.15 K, 24990 kPa): 1224.7 ± 9.8 kg/m3 | mass density (333.15 K, 30000 kPa): 1226.7 ± 9.8 kg/m3 | mass density (333.15 K, 34990 kPa): 1228.7 ± 9.9 kg/m3 | mass density (333.15 K, 40000 kPa): 1230.7 ± 9.9 kg/m3 | mass density (333.15 K, 45020 kPa): 1232.6 ± 9.9 kg/m3 | mass density (333.15 K, 50000 kPa): 1234.5 ± 9.9 kg/m3 | mass density (333.15 K, 54990 kPa): 1236.4 ± 9.9 kg/m3 | mass density (333.15 K, 60000 kPa): 1238.3 ± 9.9 kg/m3 | mass density (334.15 K, 101.33 kPa): 1213.56 ± 9.7 kg/m3 | mass density (335.15 K, 101.33 kPa): 1212.9 ± 9.7 kg/m3 | mass density (336.15 K, 101.33 kPa): 1212.24 ± 9.7 kg/m3 | mass density (337.15 K, 101.33 kPa): 1211.58 ± 9.7 kg/m3 | mass density (338.15 K, 101.33 kPa): 1210.92 ± 9.7 kg/m3 | mass density (339.15 K, 101.33 kPa): 1210.26 ± 9.7 kg/m3 | mass density (340.15 K, 101.33 kPa): 1209.6 ± 9.7 kg/m3 | mass density (341.15 K, 101.33 kPa): 1208.95 ± 9.7 kg/m3
